Like-named read-outs stand apart in the source and are kept apart here.
How the values were obtained:
KRAS (G12C)::SOS1 = KRAS (G12C)::SOS1 (Homo sapiens (Human), UniProt P01116, C118S/C51S/C80L/G12C); assay: KRAS::SOS1 AlphaScreen binding assay, KRAS G12C
How it was run: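 KRAS 1-169 (biotinylated avi-tag) with GST-SOS1 564-1049 and 10 µM GDP in PBS/0.1% BSA/0.05% Tween 20: WT and G13D 10 nM each with 10 nM SOS1; G12D 10 nM and G12C 7.5 nM with 5 nM SOS1. After 30 min, glutathione acceptor/streptavidin donor beads were added for 60 min at RT in the dark, then AlphaScreen read; 4-parameter IC50.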

AsPC-1 cells = assay: AsPC-1 CTG proliferation assay (120 h) (pancreatic cancer, G12D); type: cell-based
How it was run: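 CellTiter-Glo luminescence, normalised to DMSO wells, measured viability after 120 h compound exposure. Cells were AsPC-1 pancreatic cancer (G12D) plated at 2000 per well in RPMI/10% FCS the day before dosing. IC50 derived by four-parameter regression.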

[1] = system: KRAS G12D-dependent Ba/F3 cells; assay: Ba/F3 proliferation assay, KRAS G12D; type: cell-based; conditions: AlamarBlue
How it was run: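 IL-3-independent Ba/F3 lines driven by transduced KRAS G12C, G12D or G12V, with puromycin withdrawn about ten days before testing. Viability after compound treatment measured by AlamarBlue fluorescence in duplicate, and values derived by curve fitting.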

Sequence of KRAS (G12C)::SOS1 (P01116 other isoform, or with tags, fused parts or gaps G12C/C51S/C80L/C118S): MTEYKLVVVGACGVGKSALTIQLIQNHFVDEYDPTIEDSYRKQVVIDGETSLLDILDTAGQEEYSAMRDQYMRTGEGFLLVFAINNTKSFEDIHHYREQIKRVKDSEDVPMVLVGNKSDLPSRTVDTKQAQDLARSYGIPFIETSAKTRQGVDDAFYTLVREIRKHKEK

SMILES	IC50 (KRAS (G12C)::SOS1)	IC50 (AsPC-1 cells; Homo sapiens, ASPC1)	IC50 ([1]; Mus musculus, BaF3, 72 h)	IC50 (AsPC-1 cells)	IC50 ([1]; 72 h)
COCCNC(=O)c1ccn(-c2cc(O[C@@H](C)[C@@H]3[C@@H](OC)CCN3C)nc(-c3noc4c3CCC[C@@]43CCCc4sc(N)c(C#N)c43)n2)n1 [II-200]	1 nM	340 nM	8 nM		
C[C@H](Oc1cc(N2CC3COCC(C2)N3)nc(-c2noc3c2CCC[C@@]32CCCc3sc(N)c(C#N)c32)n1)[C@@H]1CCCN1C [II-160]	7 nM	3220 nM	429 nM		
CO[C@H]1CCN(C)[C@@H]1[C@H](C)Oc1cc(-n2ccc(C(=O)N[C@@H](C)c3ccccn3)n2)nc(-c2noc3c2CCC[C@@]32CCCc3sc(N)c(C#N)c32)n1 [II-196]	1 nM	248 nM	9 nM		
CCN1CCN(c2cc(O[C@@H](C)[C@@H]3C[C@@H](F)CN3C)nc(-c3noc4c3CCC[C@@]43CCCc4sc(N)c(C#N)c43)n2)CC12CC2 [II-185]	21 nM	190 nM	47 nM		
C[C@H](Oc1cc(-n2ccc(-c3cn([C@H]4CCOC4)nn3)n2)nc(-c2noc3c2CCC[C@@]32CCCc3sc(N)c(C#N)c32)n1)[C@@H]1CCCN1C [II-212]	2 nM	170 nM	10 nM		
C[C@H](Oc1cc(-n2ccc(C3(O)COC3)n2)nc(-c2noc3c2CCC[C@@]32CCCc3sc(N)c(C#N)c32)n1)[C@@H]1CCCN1C [II-189]	2 nM	1150 nM	28 nM		
C[C@H](Oc1cc(-n2cc(-c3cncs3)nn2)nc(-c2noc3c2CCC[C@@]32CCCc3sc(N)c(C#N)c32)n1)[C@@H]1CCCN1C [II-125]	2 nM	1370 nM	109 nM		
COc1c(O[C@@H](C)[C@@H]2CCCN2C)nc(-c2noc3c2CCC[C@@]32CCCc3sc(N)c(C#N)c32)nc1-n1ccc(C(N)=O)n1 [II-159]	2 nM	1890 nM	366 nM		
C[C@H](O)Cn1ncc(-c2cc(O[C@@H](C)[C@@H]3CCCN3C)nc(-c3noc4c3CCC[C@@]43CCCc4sc(N)c(C#N)c43)n2)n1 [II-134]	2 nM	9670 nM	1170 nM		
C[C@H](Oc1cc(-n2cncc3ccnc2-3)nc(-c2onc3c2CCC[C@@]32CCCc3sc(N)c(C#N)c32)n1)[C@@H]1CCCN1C [I-14]	2 nM	3410 nM	18 nM		
C[C@H]1CNCCCN1c1cc(-n2ccnc2)nc(-c2noc3c2CCC[C@@]32CCCc3sc(N)c(C#N)c32)n1 [II-142]	5 nM	10100 nM	5860 nM		
C[C@H](Oc1cc(-n2cncn2)nc(-c2onc3c2CCC[C@@]32CCCc3sc(N)c(C#N)c32)n1)[C@@H]1CCCN1C [I-18]	2 nM	7070 nM	22 nM		
C[C@H](Oc1cc(-n2cc3ccn([C@@H]4CCOC4)c(=O)c3n2)nc(-c2noc3c2CCC[C@@]32CCCc3sc(N)c(C#N)c32)n1)[C@@H]1CCCN1C [II-203]	2 nM	483 nM	59 nM		
CC(C)[C@@H]1CN(c2cc(O[C@@H](C)[C@@H]3CCCN3C)nc(-c3noc4c3CCC[C@@]43CCCc4sc(N)c(C#N)c43)n2)CCN1 [II-166]	8 nM	1280 nM	154 nM		
COCCNC(=O)c1ccn(-c2cc(O[C@@H](C)[C@@H]3CCCN3C)nc(-c3noc4c3CCC[C@@]43CCCc4sc(N)c(C#N)c43)n2)n1 [II-195]	1 nM	282 nM	14 nM		
C[C@H](Oc1cc(-n2cc3ccn([C@H]4CCOC4)c(=O)c3n2)nc(-c2noc3c2CCC[C@@]32CCCc3sc(N)c(C#N)c32)n1)[C@@H]1CCCN1C [II-202]	1 nM	380 nM	56 nM		
CO[C@@H]1C[C@@H]([C@H](C)Oc2cc(N3CCN(C)C4(CC4)C3)nc(-c3noc4c3CCC[C@@]43CCCc4sc(N)c(C#N)c43)n2)N(C)C1 [II-152]	7 nM	526 nM	68 nM		

SMILES	IC50 (KRAS (G12C)::SOS1)	IC50 (AsPC-1 cells; Homo sapiens, ASPC1)	IC50 ([1]; Mus musculus, BaF3, 72 h)	IC50 (AsPC-1 cells)	IC50 ([1]; 72 h)
C[C@H](Oc1cc(-n2ccc(C(=O)N[C@H]3CCOC3)n2)nc(-c2noc3c2CCC[C@@]32CCCc3sc(N)c(C#N)c32)n1)[C@@H]1CCCN1C [II-193]	1 nM			176 nM	9 nM
C[C@H](Oc1cc(N2CCN(C)C3(CC3)C2)nc(-c2noc3c2CCC[C@@]32CCCc3sc(N)c(C#N)c32)n1)[C@@H]1C[C@@H](F)CN1C [II-149]	8 nM	257 nM	18 nM		
C[C@H](Oc1cc(N2CCNC3(CC3)C2)nc(-c2noc3c2CCC[C@@]32CCCc3sc(N)c(C#N)c32)n1)[C@@H]1C[C@@H](F)CN1C [II-165]	3 nM	25 nM	3 nM		
C[C@H](Oc1cc(-c2ccn([C@H]3CCOC3)n2)nc(-c2noc3c2CCC[C@@]32CCCc3sc(N)c(C#N)c32)n1)[C@@H]1CCCN1C [II-127]	2 nM	2760 nM	109 nM		
C[C@H](Oc1cc(N2CCOC2=O)nc(-c2noc3c2CCC[C@@]32CCCc3sc(N)c(C#N)c32)n1)[C@@H]1CCCN1C [II-143]	2 nM	1510 nM	3 nM		
C[C@H](Oc1cc(-n2ccc(-c3cn(CC4(C)COC4)nn3)n2)nc(-c2noc3c2CCC[C@@]32CCCc3sc(N)c(C#N)c32)n1)[C@@H]1CCCN1C [II-213]	2 nM	275 nM	43 nM		
C[C@H](Oc1cc(N2CCNC[C@]23CCOC3)nc(-c2onc3c2CCC[C@@]32CCCc3sc(N)c(C#N)c32)n1)[C@@H]1CCCN1C [I-12]	2 nM	235 nM	4 nM		
C[C@H](Oc1cc(-n2ccc(C(=O)N(C)C3COC3)n2)nc(-c2noc3c2CCC[C@@]32CCCc3sc(N)c(C#N)c32)n1)[C@@H]1CCCN1C [II-194]	1 nM	411 nM	22 nM		
C[C@H](Oc1nc(-c2noc3c2CCC[C@@]32CCCc3sc(N)c(C#N)c32)nc(N2CCNC3(CC3)C2)c1F)[C@@H]1C[C@@H](F)CN1C [II-155]	2 nM	11 nM	6 nM		
C[C@H](Oc1cc(-c2ccn(C[C@H]3CCOC3)n2)nc(-c2noc3c2CCC[C@@]32CCCc3sc(N)c(C#N)c32)n1)[C@@H]1CCCN1C [II-129]	2 nM	2080 nM	92 nM		
C[C@H](Oc1cc(-n2cc3ccn(C[C@H]4CCOC4)c(=O)c3n2)nc(-c2noc3c2CCC[C@@]32CCCc3sc(N)c(C#N)c32)n1)[C@@H]1CCCN1C [II-204]	1 nM	508 nM	62 nM		
C[C@H](Oc1cc(N2Cc3cnn(C)c3C2)nc(-c2onc3c2CCC[C@@]32CCCc3sc(N)c(C#N)c32)n1)[C@@H]1CCCN1C [I-19]	2 nM	3000 nM	165 nM		
CO[C@@H]1C[C@@H]([C@H](C)Oc2cc(N3CCN(C)C4(COC4)C3)nc(-c3noc4c3CCC[C@@]43CCCc4sc(N)c(C#N)c43)n2)N(C)C1 [II-153]	3 nM	577 nM	126 nM		
CO[C@H]1CCN(C)[C@@H]1[C@H](C)Oc1cc(-n2ccc(C(=O)N(C)C3COC3)n2)nc(-c2noc3c2CCC[C@@]32CCCc3sc(N)c(C#N)c32)n1 [II-199]	1 nM	446 nM	16 nM		
C[C@@H]1CN(c2nc(-c3noc4c3CCC[C@@]43CCCc4sc(N)c(C#N)c43)nc(O[C@@H](C)[C@@H]3C[C@@H](F)CN3C)c2F)CC2(CC2)N1 [II-158]	2 nM	256 nM	24 nM		
C[C@H](Oc1cc(-c2ccn(Cc3ncco3)n2)nc(-c2noc3c2CCC[C@@]32CCCc3sc(N)c(C#N)c32)n1)[C@@H]1CCCN1C [II-128]	2 nM	2100 nM	83 nM		
C[C@H](NC(=O)c1ccn(-c2cc(O[C@@H](C)[C@@H]3CCCN3C)nc(-c3noc4c3CCC[C@@]43CCCc4sc(N)c(C#N)c43)n2)n1)c1ccccn1 [II-191]	2 nM	425 nM	11 nM		

Source: patent US20240174690A1, “ANNULATED 2-AMINO-3-CYANO THIOPHENES AND DERIVATIVES FOR THE TREATMENT OF CANCER” (BOEHRINGER INGELHEIM INTERNATIONAL GMBH, priority 2021, published 2024)
